{"source": "ChEMBL document CHEMBL1201861", "about": "“Genomics of Drug Sensitity in Cancer screening data, Wellcome Trust Sanger Institute”", "assay_in_all_cases": "cells", "key": {"NCI-H1770": {"tested_on": "NCI-H1770", "type": "functional, cell-based, Homo sapiens", "settings": "Homo sapiens, NCI-H1770", "description": "SANGER: Inhibition of human NCI-H1770 cell growth in a cell viability assay."}, "SK-N-DZ": {"tested_on": "SK-N-DZ", "type": "functional, cell-based, Homo sapiens", "settings": "Homo sapiens, SK-N-DZ; read-out: IC50", "description": "SANGER: Inhibition of human SK-N-DZ cell growth in a cell viability assay."}, "SNU1": {"tested_on": "SNU1", "type": "functional, cell-based, Homo sapiens", "settings": "Homo sapiens, SNU1", "description": "SANGER: Inhibition of human NCI-SNU-1 cell growth in a cell viability assay."}, "NCI-H23": {"tested_on": "NCI-H23", "type": "functional, cell-based, Homo sapiens", "settings": "Homo sapiens, NCI-H23", "description": "SANGER: Inhibition of human NCI-H23 cell growth in a cell viability assay."}, "D-263MG": {"tested_on": "D-263MG", "type": "functional, cell-based, Homo sapiens", "settings": "Homo sapiens, D-263MG", "description": "SANGER: Inhibition of human D-263MG cell growth in a cell viability assay."}, "MZ7-mel": {"tested_on": "MZ7-mel", "type": "functional, cell-based, Homo sapiens", "settings": "Homo sapiens, MZ7-mel", "description": "SANGER: Inhibition of human MZ7-mel cell growth in a cell viability assay."}, "EM-2": {"tested_on": "EM-2", "type": "functional, cell-based, Homo sapiens", "settings": "Homo sapiens, EM-2", "description": "SANGER: Inhibition of human EM-2 cell growth in a cell viability assay."}, "KARPAS-45": {"tested_on": "KARPAS-45", "type": "functional, cell-based, Homo sapiens", "settings": "Homo sapiens, KARPAS-45", "description": "SANGER: Inhibition of human KARPAS-45 cell growth in a cell viability assay."}, "SF-539": {"tested_on": "SF-539", "type": "functional, cell-based, Homo sapiens", "settings": "Homo sapiens, SF-539", "description": "SANGER: Inhibition of human SF539 cell growth in a cell viability assay."}, "MFM-223": {"tested_on": "MFM-223", "type": "functional, cell-based, Homo sapiens", "settings": "Homo sapiens, MFM-223", "description": "SANGER: Inhibition of human MFM-223 cell growth in a cell viability assay."}, "NCI-H1650": {"tested_on": "NCI-H1650", "type": "functional, cell-based, Homo sapiens", "settings": "Homo sapiens, NCI-H1650", "description": "SANGER: Inhibition of human NCI-H1650 cell growth in a cell viability assay."}, "COLO-800": {"tested_on": "COLO-800", "type": "functional, cell-based, Homo sapiens", "settings": "Homo sapiens, COLO-800", "description": "SANGER: Inhibition of human COLO-800 cell growth in a cell viability assay."}, "NB10": {"tested_on": "NB10", "type": "functional, cell-based, Homo sapiens", "settings": "Homo sapiens, NB10", "description": "SANGER: Inhibition of human NB10 cell growth in a cell viability assay."}, "ONS-76": {"tested_on": "ONS-76", "type": "functional, cell-based, Homo sapiens", "settings": "Homo sapiens, ONS-76", "description": "SANGER: Inhibition of human ONS-76 cell growth in a cell viability assay."}, "IST-MEL1": {"tested_on": "IST-MEL1", "type": "functional, cell-based, Homo sapiens", "settings": "Homo sapiens, IST-MEL1", "description": "SANGER: Inhibition of human IST-MEL1 cell growth in a cell viability assay."}, "697": {"tested_on": "697", "type": "functional, cell-based, Homo sapiens", "settings": "Homo sapiens", "description": "SANGER: Inhibition of human 697 cell growth in a cell viability assay."}, "NH-12": {"tested_on": "NH-12", "type": "functional, cell-based, Homo sapiens", "settings": "Homo sapiens, NH-12", "description": "SANGER: Inhibition of human NH-12 cell growth in a cell viability assay."}, "CTV-1": {"tested_on": "CTV-1", "type": "functional, cell-based, Homo sapiens", "settings": "Homo sapiens, CTV-1", "description": "SANGER: Inhibition of human CTV-1 cell growth in a cell viability assay."}, "RPMI-8866": {"tested_on": "RPMI-8866", "type": "functional, cell-based, Homo sapiens", "settings": "Homo sapiens, RPMI-8866", "description": "SANGER: Inhibition of human RPMI-8866 cell growth in a cell viability assay."}, "IST-SL1": {"tested_on": "IST-SL1", "type": "functional, cell-based, Homo sapiens", "settings": "Homo sapiens, IST-SL1", "description": "SANGER: Inhibition of human IST-SL1 cell growth in a cell viability assay."}, "UACC-257": {"tested_on": "UACC-257", "type": "functional, cell-based, Homo sapiens", "settings": "Homo sapiens, UACC-257", "description": "SANGER: Inhibition of human UACC-257 cell growth in a cell viability assay."}, "SW872": {"tested_on": "SW872", "type": "functional, cell-based, Homo sapiens", "settings": "Homo sapiens, SW872", "description": "SANGER: Inhibition of human SW872 cell growth in a cell viability assay."}, "SNU-C2B": {"tested_on": "SNU-C2B", "type": "functional, cell-based", "settings": "Homo sapiens", "description": "SANGER: Inhibition of human SNU-C2B cell growth in a cell viability assay."}, "KNS-42": {"tested_on": "KNS-42", "type": "functional, cell-based", "settings": "Homo sapiens", "description": "SANGER: Inhibition of human KNS-42 cell growth in a cell viability assay."}, "A4-Fuk": {"tested_on": "A4-Fuk", "type": "functional, cell-based, Homo sapiens", "settings": "Homo sapiens, A4-Fuk", "description": "SANGER: Inhibition of human A4-Fuk cell growth in a cell viability assay."}, "MPP-89": {"tested_on": "MPP-89", "type": "functional, cell-based, Homo sapiens", "settings": "Homo sapiens, MPP-89", "description": "SANGER: Inhibition of human MPP-89 cell growth in a cell viability assay."}, "GI-ME-N": {"tested_on": "GI-ME-N", "type": "functional, cell-based, Homo sapiens", "settings": "Homo sapiens, GI-ME-N", "description": "SANGER: Inhibition of human GI-ME-N cell growth in a cell viability assay."}, "EW-11": {"tested_on": "EW-11", "type": "functional, cell-based, Homo sapiens", "settings": "Homo sapiens, EW-11", "description": "SANGER: Inhibition of human EW-11 cell growth in a cell viability assay."}, "J-RT3-T3-5": {"tested_on": "J-RT3-T3-5", "type": "functional, cell-based, Homo sapiens", "settings": "Homo sapiens, J-RT3-T3-5", "description": "SANGER: Inhibition of human J-RT3-T3-5 cell growth in a cell viability assay."}, "SK-N-FI": {"tested_on": "SK-N-FI", "type": "functional, cell-based, Homo sapiens", "settings": "Homo sapiens, SK-N-FI", "description": "SANGER: Inhibition of human SK-N-FI cell growth in a cell viability assay."}, "LS-411N": {"tested_on": "LS-411N", "type": "functional, cell-based, Homo sapiens", "settings": "Homo sapiens, LS-411N"}, "no-11": {"tested_on": "no-11", "type": "functional, cell-based, Homo sapiens", "settings": "Homo sapiens", "description": "SANGER: Inhibition of human no-11 cell growth in a cell viability assay."}, "NCI-H69": {"tested_on": "NCI-H69", "type": "functional, cell-based, Homo sapiens", "settings": "Homo sapiens, NCI-H69", "description": "SANGER: Inhibition of human NCI-H69 cell growth in a cell viability assay."}, "COLO-668": {"tested_on": "COLO-668", "type": "functional, cell-based, Homo sapiens", "settings": "Homo sapiens, COLO-668", "description": "SANGER: Inhibition of human COLO-668 cell growth in a cell viability assay."}, "LS-1034": {"tested_on": "LS-1034", "type": "functional, cell-based, Homo sapiens", "settings": "Homo sapiens, LS-1034", "description": "SANGER: Inhibition of human LS-1034 cell growth in a cell viability assay."}, "DJM-1": {"tested_on": "DJM-1", "type": "functional, cell-based, Homo sapiens", "settings": "Homo sapiens, DJM-1", "description": "SANGER: Inhibition of human DJM-1 cell growth in a cell viability assay."}, "JVM-2": {"tested_on": "JVM-2", "type": "functional, cell-based, Homo sapiens", "settings": "Homo sapiens, JVM-2", "description": "SANGER: Inhibition of human JVM-2 cell growth in a cell viability assay."}, "SNU-5": {"tested_on": "SNU-5", "type": "functional, cell-based, Homo sapiens", "settings": "Homo sapiens, SNU-5", "description": "SANGER: Inhibition of human NCI-SNU-5 cell growth in a cell viability assay."}, "KLE": {"tested_on": "KLE", "type": "functional, cell-based", "settings": "Homo sapiens", "description": "SANGER: Inhibition of human KLE cell growth in a cell viability assay."}, "ES6": {"tested_on": "ES6", "type": "functional, cell-based", "settings": "Homo sapiens", "description": "SANGER: Inhibition of human ES6 cell growth in a cell viability assay."}, "Lu-65": {"tested_on": "Lu-65", "type": "functional, cell-based, Homo sapiens", "settings": "Homo sapiens, Lu-65", "description": "SANGER: Inhibition of human LU-65 cell growth in a cell viability assay."}, "MOLT-4": {"tested_on": "MOLT-4", "type": "functional, cell-based, Homo sapiens", "settings": "Homo sapiens, MOLT-4", "description": "SANGER: Inhibition of human MOLT-4 cell growth in a cell viability assay."}, "BT-474": {"tested_on": "BT-474", "type": "functional, cell-based, Homo sapiens", "settings": "Homo sapiens, BT-474", "description": "SANGER: Inhibition of human BT-474 cell growth in a cell viability assay."}, "COR-L88": {"tested_on": "COR-L88", "type": "functional, cell-based, Homo sapiens", "settings": "Homo sapiens, COR-L88", "description": "SANGER: Inhibition of human COR-L88 cell growth in a cell viability assay."}, "CTB-1": {"tested_on": "CTB-1", "type": "functional, cell-based, Homo sapiens", "settings": "Homo sapiens, CTB-1", "description": "SANGER: Inhibition of human CTB-1 cell growth in a cell viability assay."}, "IA-LM": {"tested_on": "IA-LM", "type": "functional, cell-based", "settings": "Homo sapiens", "description": "SANGER: Inhibition of human IA-LM cell growth in a cell viability assay."}, "NCI-H209": {"tested_on": "NCI-H209", "type": "functional, cell-based, Homo sapiens", "settings": "Homo sapiens, NCI-H209", "description": "SANGER: Inhibition of human NCI-H209 cell growth in a cell viability assay."}, "KNS-81-FD": {"tested_on": "KNS-81-FD", "type": "functional, cell-based, Homo sapiens", "settings": "Homo sapiens, KNS-81-FD", "description": "SANGER: Inhibition of human KNS-81-FD cell growth in a cell viability assay."}, "U-266": {"tested_on": "U-266", "type": "functional, cell-based, Homo sapiens", "settings": "Homo sapiens, U-266", "description": "SANGER: Inhibition of human U-266 cell growth in a cell viability assay."}, "MS-1": {"tested_on": "MS-1", "type": "functional, cell-based, Homo sapiens", "settings": "Homo sapiens, MS-1", "description": "SANGER: Inhibition of human MS-1 cell growth in a cell viability assay."}}, "data": [{"compound": "CN(NC(=O)CC(=O)NN(C)C(=S)c1ccccc1)C(=S)c1ccccc1", "note": "[ELESCLOMOL]", "values": [{"measurement": "IC50", "setting": "NCI-H1770", "value": "> 200", "unit": "nM"}, {"measurement": "IC50", "setting": "SK-N-DZ", "value": 189, "unit": "nM"}, {"measurement": "IC50", "setting": "SNU1", "value": 4.86, "unit": "nM"}, {"measurement": "IC50", "setting": "NCI-H23", "value": 12.2, "unit": "nM"}, {"measurement": "IC50", "setting": "D-263MG", "value": "> 200", "unit": "nM"}, {"measurement": "IC50", "setting": "MZ7-mel", "value": 12.7, "unit": "nM"}, {"measurement": "IC50", "setting": "EM-2", "value": "> 200", "unit": "nM"}, {"measurement": "IC50", "setting": "KARPAS-45", "value": "> 200", "unit": "nM"}, {"measurement": "IC50", "setting": "SF-539", "value": 24.4, "unit": "nM"}, {"measurement": "IC50", "setting": "MFM-223", "value": 45.2, "unit": "nM"}, {"measurement": "IC50", "setting": "NCI-H1650", "value": 30.4, "unit": "nM"}, {"measurement": "IC50", "setting": "COLO-800", "value": 29.9, "unit": "nM"}, {"measurement": "IC50", "setting": "NB10", "value": 15.2, "unit": "nM"}, {"measurement": "IC50", "setting": "ONS-76", "value": 10.3, "unit": "nM"}, {"measurement": "IC50", "setting": "IST-MEL1", "value": 11.3, "unit": "nM"}, {"measurement": "IC50", "setting": "697", "value": 6.13, "unit": "nM"}, {"measurement": "IC50", "setting": "NH-12", "value": 134, "unit": "nM"}, {"measurement": "IC50", "setting": "CTV-1", "value": "> 200", "unit": "nM"}, {"measurement": "IC50", "setting": "RPMI-8866", "value": 30, "unit": "nM"}, {"measurement": "IC50", "setting": "IST-SL1", "value": 52.3, "unit": "nM"}, {"measurement": "IC50", "setting": "UACC-257", "value": 22, "unit": "nM"}, {"measurement": "IC50", "setting": "SW872", "value": "> 200", "unit": "nM"}, {"measurement": "IC50", "setting": "SNU-C2B", "value": "> 200", "unit": "nM"}, {"measurement": "IC50", "setting": "KNS-42", "value": "> 200", "unit": "nM"}, {"measurement": "IC50", "setting": "A4-Fuk", "value": 108, "unit": "nM"}, {"measurement": "IC50", "setting": "MPP-89", "value": 9.13, "unit": "nM"}, {"measurement": "IC50", "setting": "GI-ME-N", "value": "> 200", "unit": "nM"}, {"measurement": "IC50", "setting": "EW-11", "value": 4.9, "unit": "nM"}, {"measurement": "IC50", "setting": "J-RT3-T3-5", "value": 14.4, "unit": "nM"}, {"measurement": "IC50", "setting": "SK-N-FI", "value": 81.5, "unit": "nM"}, {"measurement": "IC50", "setting": "LS-411N", "value": 102, "unit": "nM"}, {"measurement": "IC50", "setting": "no-11", "value": 23.3, "unit": "nM"}, {"measurement": "IC50", "setting": "NCI-H69", "value": "> 200", "unit": "nM"}, {"measurement": "IC50", "setting": "COLO-668", "value": "> 200", "unit": "nM"}, {"measurement": "IC50", "setting": "LS-1034", "value": "> 200", "unit": "nM"}, {"measurement": "IC50", "setting": "DJM-1", "value": 54.3, "unit": "nM"}, {"measurement": "IC50", "setting": "JVM-2", "value": "> 200", "unit": "nM"}, {"measurement": "IC50", "setting": "SNU-5", "value": "> 200", "unit": "nM"}, {"measurement": "IC50", "setting": "KLE", "value": "> 200", "unit": "nM"}, {"measurement": "IC50", "setting": "ES6", "value": 40, "unit": "nM"}, {"measurement": "IC50", "setting": "Lu-65", "value": "> 200", "unit": "nM"}, {"measurement": "IC50", "setting": "MOLT-4", "value": 105, "unit": "nM"}, {"measurement": "IC50", "setting": "BT-474", "value": 19.2, "unit": "nM"}, {"measurement": "IC50", "setting": "COR-L88", "value": "> 200", "unit": "nM"}, {"measurement": "IC50", "setting": "CTB-1", "value": 8.64, "unit": "nM"}, {"measurement": "IC50", "setting": "IA-LM", "value": 84.4, "unit": "nM"}, {"measurement": "IC50", "setting": "NCI-H209", "value": "> 200", "unit": "nM"}, {"measurement": "IC50", "setting": "KNS-81-FD", "value": 17.5, "unit": "nM"}, {"measurement": "IC50", "setting": "U-266", "value": 15.8, "unit": "nM"}, {"measurement": "IC50", "setting": "MS-1", "value": 166, "unit": "nM"}]}]}
